The text below walks through data of paper PMC10805311, “Pseudomonas aeruginosa two-component system CprRS regulates HigBA expression and bacterial cytotoxicity in response to LL-37 stress” (PLOS Pathogens, 2024).

In brackets after ≈: the same amount, converted by molar mass. Where two headings read alike, the source gives them in different places. Residues, ends and D or L forms follow the SMILES beside them. No end group written: not given here.

Experiment [1] has as its system WT P. aeruginosa. The experiment can be described thus: microbe, parasite or virus in culture. The experiment is classed as cell-based. To be noted: 37°C; for MIC: without LL-37, LB medium, OD600 = 0.1, 24 h; for MIC (+ LL-37): antibiotic + LL-37 (LL-37 pretreatment), LB medium, 24 h. How it is done:
(§1) The initial concentrations of meropenem, cephalosporin, tetracycline, gentamicin, ciprofloxacin, polymyxin B, and colistin are: 0.1 mg/mL, 0.02 mg/mL, 0.5 mg/mL, 0.16 mg/mL, 1 mg/mL, 0.1 mg/mL, and 0.1 mg/mL, all the antibiotics were 10 × gradient dilution with sterile PBS buffer. Overnight bacterial cultures of WT P. aeruginosa and mutants were re-inoculated into fresh LB medium supplemented at OD600 = 0.1, then 90 μL cultures and 10 μL antibiotic dilutions were added in a 96-well microtiter dish for 24 h at 37°C.

Experiment [2] relates to P. aeruginosa PAO1 strain H103. To be noted: cited from earlier work. From the text: TCSs represent the most common signal-transduction cascades in bacteria, sensing external cues such as ions, peptides, and compounds [46, 47]. Canonical TCSs comprise a transmembrane sensor histidine kinase (HK) and an intracellular response regulator (RR). Upon binding to specific stimuli, the HK undergoes autophosphorylation and transfers the phosphoryl group to the RR, activating its transcription regulation ability to influence bacterial behavior. To date, over 60 TCSs have been identified in the P. aeruginosa PAO1 genome, they have been recognized as crucial players in various b ...

For experiment [3], the target named is full-length CprS (CprSFL), sensor histidine kinase of the two-component system CprRS (Pseudomonas aeruginosa). The experiment is described as follows: MST; 100 nM His-tagged CprS labelled with Monolith His-Tag Labelling Kit RED-tris-NTA 2nd Generation; cationic peptides in 16 doubling dilutions from 500 uM (0.5 mM) in PBST; incubated at 25 C for 30 min; Monolith NT.115; repeated three times.

Experiment [4] deals with CprS periplasmic sensor domain CprSSD (residues 28-163) (Pseudomonas aeruginosa). Described as above.
Experiment [5] has as its system cprS. The experiment can be described thus: qRT-PCR, cprS transcription. The class given is cell-based, P. aeruginosa. To be noted: oprL as normalizer. As to the method: (§2) Overnight bacterial cultures were subcultured in fresh LB medium to OD600 0.8 and the cells were collected by using Trizol. The cDNA was synthesized by using PrimeScript RT reagent Kit. 2 × SYBR qPCR Master Mix was used to perform qPCR assays. The reaction step was 2 × SYBR qPCR Master Mix (Without ROX) 10 μL, upstream Primer (10 μM) 0.4 μL, downstream Primer (10 μM) 0.4 μL, template cDNA 1 μg and ddH2O up to 20 μL. The qPCR procedure was set as: stage 1 (95°C 30 s, repeat once), stage 2 (95°C 10 s, 60°C 30 s, repeat for 40 times) and stage 3 (95°C 15 s, 60°C 1 min, 95°C 15 s, repeat 1 time). The oprL gene was used as a normalizer. The same method was used for mammalian cells, and 18 sRNA served as a normalizer.

Experiment [6] relates to full-length CprS (CprSFL). The experiment can be described thus: Microscale thermophoresis (MST), full-length CprS. The class given is binding, P. aeruginosa. To be noted: 100 nM CprS, cationic peptides from 500 μM, 25°C 30 min. How it is done:
The E. coli BL21 (DE3) strains harboring pET22b-cprS and pET22b-cprR were cultured at 37°C in LB medium and suppled with 0.4 mM IPTG as the OD600 reached to 0.8. The cultures were incubated at 16°C for an additional 14 h and the cells were collected and resuspended in buffer A (20 mM tris-HCl (pH 8.0), 150 mM NaCl). The cells were lysed by ultrasound and centrifuged at 15, 000 rpm for 20 min at 4°C. Then the supernatant was applied to Ni-agarose resins and eluted with buffer containing 300 mM imidazole. As for full-length CprS, the supernatant needed to be extracted by 2% ELUGENT Detergent and flow 0.02% DDM for elution. The target proteins were further purified via AKTA purifier using buffer A and concentrated to 12 mg/mL.
The 100 nM CprS with His-tag was labeled with Monolith His-Tag Labelling Kit RED-tris-NTA 2nd Generation Kit and the cationic peptides used in this work were diluted with PBST buffer gradient from 0.5 mM [34]. The proteins and cationic peptide dilutions were mixed and incubated at 25°C for 30 min and detected on a Monolith NT.115 instrument. The data were analyzed by NanoTemper Analysis 1.2.20 software.
(Microscale thermophoresis detects binding through changes in fluorescence in a small temperature gradient.)

Experiment [7] deals with cprR. The experiment can be described thus: qRT-PCR, cprR transcription. The experiment is classed as cell-based, P. aeruginosa. To be noted: oprL as normalizer. How it is done:
as §2

For experiment [8], the system named is P. aeruginosa ΔcprS. The class given is cell-based. To be noted: 37°C; for MIC (+ LL-37): antibiotic + LL-37 (LL-37 pretreatment), LB medium, 24 h; for MIC: without LL-37, LB medium, OD600 = 0.1, 24 h. As to the method: as §1
The subject of experiment [9] is P. aeruginosa ΔcprR. The experiment is classed as cell-based. To be noted: 37°C; for MIC (+ LL-37): antibiotic + LL-37 (LL-37 pretreatment), LB medium, 24 h; for MIC: without LL-37, LB medium, OD600 = 0.1, 24 h. As to the method: as §1
Experiment [10] has as its system CarSR system. To be noted: Vibrio cholerae; cited from earlier work. The source says: In the field of microbiology and immunology, the interaction between host antimicrobial peptides and pathogenic bacteria has been a subject of extensive research. The success of bacterial infections depends on a delicate balance of signals exchanged between microbes and hosts. Cationic antimicrobial peptides, including defensins such as α-defensins, β-defensins, and cathelicidin LL-37, are crucial components of innate host defense against bacterial infections. Numerous studies have shown that LL-37 acts as a shield between the host and the external environment, preventing bact ...

[11] abbreviates: Pseudomonas aeruginosa, read-out: MIC.

With `O=C(O)c1cn(C2CC2)c2cc(N3CCNCC3)c(F)cc2c1=O` [CIP, ciprofloxacin], the MIC in [1] (setting [11]) amounted to 2 µg/mL (≈ 6.04 µM).

As for “indolicidin: cationic peptide antibiotic (ILPWKWPWWPWRR; ends and bridges not checked; UniProt P33046 131-143, looked up)”, the CprRS-mediated adaptive resistance entry in [2] is on record as “adaptive resistance”.

As usually defined, the Kd is the equilibrium constant for the complex coming apart. Read a high Kd as lower affinity. With human host defense peptide LL-37, the Kd came to 1.41 µM in [3] and 5.34 µM in experiment [4].

For `CNC(C)C1CCC(N)C(OC2C(N)CC(N)C(OC3OCC(C)(O)C(NC)C3O)C2O)O1` (stereo not shown) [GM, Gentamicin], in [1] (setting [11]), the MIC turned out to be 12.5 µg/mL (≈ 26.2 µM).

On to `C[C@@H](O)[C@H]1C(=O)N2C(C(=O)O)=C(S[C@@H]3CN[C@H](C(=O)N(C)C)C3)[C@H](C)[C@H]12` [MEM, Meropenem], for which the MIC in experiment [1] (setting [11]) stood at 10 µg/mL (≈ 26.1 µM).

For the molecule `CN(C)[C@@H]1C(O)=C(C(N)=O)C(=O)[C@@]2(O)C(O)=C3C(=O)c4c(O)cccc4[C@@](C)(O)[C@H]3C[C@@H]12` [TE, Tetracycline], the MIC in experiment [1] (setting [11]) worked out at 3.2 µg/mL (≈ 7.2 µM).

Take `CC[C@H](C)CCCCC(=O)N[C@@H](CCN)C(=O)N[C@H](C(=O)N[C@@H](CCN)C(=O)N[C@H]1CCNC(=O)[C@H]([C@@H](C)O)NC(=O)[C@H](CCN)NC(=O)[C@H](CCN)NC(=O)[C@H](CC(C)C)NC(=O)[C@@H](Cc2ccccc2)NC(=O)[C@H](CCN)NC1=O)[C@@H](C)O` [Polymyxin B] (HELM PEPTIDE1{[CC[C@H](C)CCCCC(=O)[*:2]].[Dab].T.[Dab].[Dab].[Dab].[dF].L.[Dab].[Dab].T}$PEPTIDE1,PEPTIDE1,5:R3-11:R2$$$V2.0; N-terminus assumed; bridges inferred): the “expression of cprS under Polymyxin B treatment” value in experiment [5] was “no significant change in expression was observed”. The CprRS-mediated adaptive resistance result in experiment [2] is recorded as “adaptive resistance”. In addition, the “binding to CprS” value in [6] is “no binding was observed”. For the same molecule, the “expression of cprR under Polymyxin B treatment” value in experiment [7] is “no significant change in expression was observed”. The figures for the “MIC (+ LL-37)” value in [8], in [9] and in experiment [1] were 1 µg/mL, 1 µg/mL and 64 µg/mL, respectively. For the same molecule, the MIC in experiment [8] came out at 2 µg/mL (≈ 1.66 µM); in experiment [9] it was 2 µg/mL (≈ 1.66 µM); in experiment [1] it was 4 µg/mL (≈ 3.32 µM).

Consider `CC[C@H](C)CCCCC(=O)N[C@@H](CCN)C(=O)N[C@H](C(=O)N[C@@H](CCN)C(=O)N[C@H]1CCNC(=O)[C@H]([C@@H](C)O)NC(=O)[C@H](CCN)NC(=O)[C@H](CCN)NC(=O)[C@H](CC(C)C)NC(=O)[C@@H](CC(C)C)NC(=O)[C@H](CCN)NC1=O)[C@@H](C)O` [colistin, Colistin] (HELM PEPTIDE1{[CC[C@H](C)CCCCC(=O)[*:2]].[Dab].T.[Dab].[Dab].[Dab].[dL].L.[Dab].[Dab].T}$PEPTIDE1,PEPTIDE1,5:R3-11:R2$$$V2.0; N-terminus assumed; bridges inferred), for which, in [6], the “binding to CprS” value is on record as “no binding was observed”. Also, the “MIC (+ LL-37)” value is 0.5 µg/mL in experiment [8], 1 µg/mL in [9] and 64 µg/mL in experiment [1]. For the same molecule, the figures for the MIC in experiment [8], in experiment [9] and in experiment [1] were 1 µg/mL (≈ 0.855 µM), 1 µg/mL (≈ 0.855 µM) and 4 µg/mL (≈ 3.42 µM), respectively.

B1: α-defensin 5: human enteric α-defensin 5 (peptide, UniProt Q01523 20-94, looked up)
Defensin alpha 5: ESLQERADEATTQKQSGEDNQDLAISFAGNGLSALRTSGSQARATCYCRTGRCATRESLSGVCEISGRLYRLCCR
modifications: Defensin-5
With B1, in experiment [10], the “sensing by CarSR” value was “sense human enteric α-defensin 5 and LL-37 to promote bacterial pathogenicity”.
